“Also recorded” adds a separate entry of the source. Read-outs that look alike come from different tables or passages of the source. Values belong to the molecule of their own block, whether it stands above or below them.
What was measured:
[1] = system: LPS mediated TNFα stimulation; settings: serum 2 hours post LPS challenge, FIG. 42
[2] = system: collagen-induced arthritis; settings: for body weight after initiation of treatment: FIG. 47; for day of disease onset: mean±SD; for thymus weight compared to vehicle: at sacrifice
Experimental: The effect of dexamethasone on arthritis development in the rat CIA model was tested at three dosages (0.01, 0.1 and 1 mg/kg). Dexamethasone was administered intravenously on day 10 (day of disease onset), 13, 16 and 19. […] Treatment with vehicle (PBS/2.5% EtOH) served as negative control. Rats were sacrificed 21 days after immunization.
Collagen arthritis was induced in 9 weeks old female Lewis rats using a two-step immunization protocol. On day 0, all mice were immunized by intradermal injection of 1 mg/ml bovine type II collagen emulsified in Incomplete Freund's adjuvant at several sites at the back. Arthritis development was accelerated by an intradermal boost in the back and tail-base with 100 Sg bovine type II collagen in IFA on day 7. In order to perform immunization and intradermal boost, rats were anesthetized by inhalation of 3-4% isoflurane in a mixture of oxygen and N2O.
Rats were evaluated 6 times per week (once during weekends) for arthritis severity using a macroscopic scoring system of 0-4 for each paw as detailed below: • 0=no signs of arthritis • 0.5=unloading of the paw and/or light redness of ankle joint • 1=redness and mild swelling of the ankle joint • 2=redness and swelling of paw • 3=severe redness and swelling of entire paw including digits • 4=maximally swollen paw, often involvement of multiple joints and extending towards knee joint.
The total clinical score of an individual rat is defined as the sum of the clinical scores of all four paws for each day. At the end of the study, the cumulative arthritis score was calculated for each rat. This cumulative arthritis score is defined as the sum of the total clinical scores obtained from day 0 till day 21.
The day of disease is defined as the first day of three consecutive days on which a total arthritis score of more than 0 was observed.
The swelling of the hind paws was measured during weekdays with a laser scan micrometer (Mitutoyo, LSM-503S/6200). At the end of the study, the cumulative paw swelling was calculated for each rat as follows: a baseline value was determined by averaging the paw thickness values of day 0-9 when no signs of arthritis were visible. Next, increase in paw thickness was calculated by subtracting the baseline value from the paw thickness values obtained on day 10-21 (delta value). Cumulative paw swelling is defined as the sum of the delta paw thickness values from day 10 till 21.
Spleen, thymus and liver were isolated and weighed at sacrifice. Weights were normalized for body weight.
Collagen-induced arthritis (CIA) was induced in female Lewis rats (9 weeks of age) by intradermal injection of approximately 1 mg bovine type II collagen (Chondrex) emulsified in Incomplete Freund's adjuvant (IFA). The rats were immunized at several sites at the back under isoflurane anaesthesia (day 0) and boosted intradermal at the back and tail-base with 100 μg bovine type II collagen in IFA at day 7. The rats were scored 6 times per weeks for clinical signs of arthritis. Clinical severity of CIA was determined by swelling of individual joints and the number of affected joints in the front and rear paws. Each paw was scored from 1 to 4, so the maximum clinical score, including all four paws was 16.
A total of 20 rats were divided into five treatment groups (4 rats each). […] Changes in ankle size and body weight were monitored during the treatment process. On day 21, all animals were sacrificed and joint tissue, spleen, liver and thymus were dissected.

[3] = system: LPS mediated TNFα stimulation; test: Rat in vivo LPS model; parameters: species or system Lewis rats
[4] = system: LPS mediated TNFα stimulation of rat macrophages / spleen cells; test: Rat in vitro LPS model; format: cell-based
Experimental: Rat or mouse peritoneal or spleen cell suspensions were prepared from female Lewis rats (Harlan) or BalB/cA mice (Taconic). Human mononuclear cells were isolated from buffycoats (Skejby University Hospital) as described above. The purified cells were suspended in RPMI medium supplemented with 10% FCS and 2 mM L-glutamine and cultured (2×10^5 per well) overnight in 96-well flat bottomed plates (125 μl per well) at 37° C. and 5% CO2. Glucocorticoid conjugates (Example 8), free glucocorticoids or PBS were serial diluted in supplemented RPMI medium and added (100 μl) to the overnight cell cultures at final concentrations ranging from 1-10^−7 μg glucocorticoid/ml. After incubation for a specific time ranging from 30 min-24 hours, 150 μl supernatant was carefully aspirated and 150 μl supplemented RPMI medium added to the wells before further incubation overnight. Each incubation condition was tested in duplicates or triplicates. After 16-20 hours, the cells were challenged with lipopolysaccharide (LPS) (250 ng/ml) for 4 hours before supernatant was aspirated from each well and frozen at -20° C.

[5] = target: T1, CD163 (Homo sapiens, UniProt Q86VB7); test: Surface plasmon resonance (Biacore) analysis of mAb binding to immobilized CD163; settings: in both 2 mM free Ca2+ and 10 mM EDTA
T1 sequence (Q86VB7 42-1156): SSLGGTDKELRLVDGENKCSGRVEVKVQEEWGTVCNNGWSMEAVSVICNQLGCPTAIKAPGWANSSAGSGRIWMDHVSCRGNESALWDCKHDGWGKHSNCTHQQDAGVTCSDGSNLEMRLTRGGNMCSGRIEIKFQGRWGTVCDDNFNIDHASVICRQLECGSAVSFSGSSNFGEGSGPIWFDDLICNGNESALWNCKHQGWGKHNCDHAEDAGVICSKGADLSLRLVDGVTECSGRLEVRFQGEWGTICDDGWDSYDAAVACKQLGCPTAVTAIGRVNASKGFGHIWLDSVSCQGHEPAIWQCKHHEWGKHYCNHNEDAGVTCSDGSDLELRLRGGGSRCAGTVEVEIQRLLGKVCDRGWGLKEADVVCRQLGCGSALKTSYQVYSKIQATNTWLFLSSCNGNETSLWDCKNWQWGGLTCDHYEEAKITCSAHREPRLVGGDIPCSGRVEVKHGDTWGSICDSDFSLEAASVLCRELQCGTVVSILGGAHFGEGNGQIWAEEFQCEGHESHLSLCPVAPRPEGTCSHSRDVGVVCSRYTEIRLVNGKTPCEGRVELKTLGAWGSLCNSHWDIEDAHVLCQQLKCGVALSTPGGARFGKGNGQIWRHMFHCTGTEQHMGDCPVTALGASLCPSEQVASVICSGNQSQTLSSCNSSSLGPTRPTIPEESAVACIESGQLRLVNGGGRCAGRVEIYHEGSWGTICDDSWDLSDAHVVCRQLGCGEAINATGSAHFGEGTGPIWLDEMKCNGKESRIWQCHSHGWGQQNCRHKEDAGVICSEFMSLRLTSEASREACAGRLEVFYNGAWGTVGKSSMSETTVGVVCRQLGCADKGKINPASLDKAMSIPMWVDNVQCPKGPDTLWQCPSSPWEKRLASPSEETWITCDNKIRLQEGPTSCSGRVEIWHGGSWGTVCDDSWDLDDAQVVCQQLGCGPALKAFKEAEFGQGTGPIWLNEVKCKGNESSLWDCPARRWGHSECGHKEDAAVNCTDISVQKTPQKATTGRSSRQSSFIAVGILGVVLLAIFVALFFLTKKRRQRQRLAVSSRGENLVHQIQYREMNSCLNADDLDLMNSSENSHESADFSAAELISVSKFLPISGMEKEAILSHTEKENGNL
Experimental: (§1) SPR analysis of the binding of mAbs to CD163 was carried out on a Biacore 2000 instrument (Biacore, Uppsala, Sweden). The Biacore sensor chips (type CM5) were activated with a 1:1 mixture of 0.2 M N-ethyl-N′-(3-dimethylaminopropyl) carbodiimide and 0.05 M N-hydroxysuccimide in water. Purified recombinant CD163 were immobilized in 10 mM sodium acetate, pH 4.0, and the remaining binding sites were blocked with 1 M ethanolamine, pH 8.5. The SPR signal generated from immobilized recombinant CD163 proteins corresponded to 40-70 fmol of protein/mm^2. Sensorgrams were generated using mAb concentrations ranging from 5-100 nM. The flow cells were regenerated with 1.6 M glycine-HCl, pH 3. The running buffer used for the experiment was either CaHBS 10 mM Hepes, 150 mM NaCl, 3.0 mM CaCl2, 1.0 mM EGTA, and 0.005% Tween 20, […], and 0.005% Tween 20, pH 7.4, mAb samples were dissolved in the same buffer as the running buffer used. All binding data were analyzed using the Biamolecular Interaction Analysis evaluation program version 3.1.
as §1, with “7.4, KN2/NRY and Mac-158” for “7.4, mAb”, “buffer used at a concentration of 5 μg/ml.” for “buffer used.”

[6] = target: T2, CHO cells expressing CD163 (Homo sapiens, UniProt Q86VB7); test: CD163 antibody binding and uptake in CHO cells expressing CD163 (confocal microscopy); format: cell-based; settings: 0 or 30 minutes, FIG. 7
T2 construct: Stably transfected Chinese hamster ovary (CHO) cells expressing the full-length human CD163; expressed in transfected cells
T2 sequence (Q86VB7 42-1156): as above
Experimental: Monocytes were isolated from PBMC by negative selection using magnetic beads from Dynal (Dynabeads® MyPure™ Monocyte Kit 2; Invitrogen A/S, Taastrup, Denmark) according to instructions provided by the manufacturer. Monocyte preparations were more than 95% (CD14^+) pure determined by flow cytometry. The isolated cells were washed twice with phosphate-buffered saline. Monocyte-derived macrophages (MDMs) were prepared by cell culture of monocytes (approximately 1×10^7 cells) for 4 days in 5% CO2 and 37° C. in RPMI 1640 media (RPMI 1640+25 mM HEPES+I-glutamine) (Invitrogen Corporation, Carlsbad, Calif., USA) with 20% FCS containing 100 ng/ml of M-CSF. MDMs were then detached from the flask by incubation with cell dissociation buffer (Invitrogen A/S, Taastrup, Denmark) for 30 minutes at 4 °C, then flushed, and scraped. […]
MDMs or CHO cells were washed with 4° C. cold D-PBS, pH 7.4, containing 1% BSA in Lab-Tek™ Chamber Slides (Thermo Fisher Scientific, Roskilde, Denmark). […] Fluorescence was visualized using a Zeiss Axiovert 200M microscope (Carl Zeiss GmbH, Jena, Germany) with an ×100 oil-immersion objective. […] Alternatively, immunostained cells were analyzed by confocal immunofluorescence microscopy using a Zeiss LSM-510 confocal microscope (Carl Zeiss GmbH, Jena, Germany). […]

[7] = target: T3, CD163 transfected Flp-In CHO cells (Homo sapiens, UniProt Q86VB7); test: Cellular binding and uptake (endocytosis) of 125I-labeled anti-CD163; format: cell-based
T3 construct: Stably transfected Chinese hamster ovary (CHO) cells expressing the full-length human CD163; expressed in transfected cells
T3 sequence (Q86VB7 42-1156): as above
Experimental: Monocytes were isolated from PBMC by negative selection using magnetic beads from Dynal (Dynabeads® MyPure™ Monocyte Kit 2; Invitrogen A/S, Taastrup, Denmark) according to instructions provided by the manufacturer. Monocyte preparations were more than 95% (CD14^+) pure determined by flow cytometry. The isolated cells were washed twice with phosphate-buffered saline. Monocyte-derived macrophages (MDMs) were prepared by cell culture of monocytes (approximately 1×10^7 cells) for 4 days in 5% CO2 and 37° C. in RPMI 1640 media (RPMI 1640+25 mM HEPES+I-glutamine) (Invitrogen Corporation, Carlsbad, Calif., USA) with 20% FCS containing 100 ng/ml of M-CSF. MDMs were then detached from the flask by incubation with cell dissociation buffer (Invitrogen A/S, Taastrup, Denmark) for 30 minutes at 4 °C, then flushed, and scraped. The cells were then cultured for 24 hours in RPMI 1640 media (RPMI 1640+25 mM HEPES+I-glutamine) (Invitrogen Corporation, Carlsbad, Calif., USA) supplemented with 20% FCS containing 100 ng/ml of M-CSF at 37° C. in 95% air and 5% CO2 in Lab-Tek™ Chamber Slides (Thermo Fisher Scientific, Roskilde, Denmark). 200 nM dexamethasone (Merck KGaA, Darmstadt, Germany) was added during culture to increase CD163 expression. Stably transfected Chinese hamster ovary (CHO) cells expressing the full-length human CD163, as described above, were cultured in serum-free CHO medium (HyQ-CCM, HyClone, Logan, Utah) containing 300 μg/ml Hygromycin B, as previously described (2).
Endocytosis of ^125I-labeled anti-CD163 was investigated in CD163 transfected Flp-In Chinese hamster ovary (CHO) cells and mock-transfected Flp-In as described (Madsen, M., Moller, H. J., Nielsen, M. J., Jacobsen, C., Graversen, J. H., van den Berg, T. and Moestrup, S. K. (2004) Molecular characterization of the haptoglobin.hemoglobin receptor CD163. Ligand binding properties of the scavenger receptor cysteine-rich domain region. J. Biol. Chem., 279, 51561-51567.)

[8] = target: T1, CD163; test: Competition of binding to Mac2-158 epitope (SPR on Mac2-158 saturated CD163 chip); settings: 2 mM free calcium buffer, mAb 5 μg/ml
Experimental: To evaluate if there is competition in the binding of a range of mAbs to CD163 we first saturated the CD163-chip with Mac2-158 by injecting 50 μL of 50 μg/ml Mac2-158 and subsequently injecting relevant mAbs in 5 μg/ml. The binding buffer was CaHBS 10 mM Hepes, 150 mM NaCl, 3.0 mM CaCl2, 1.0 mM EGTA, and 0.005% Tween 20, pH 7.4.

thymus weight compared to vehicle ([2]; 1 mg/kg): significantly decreased | spleen and liver weights compared to vehicle ([2]; 0.01, 0.1 and 1 mg/kg groups): No significant differences | spleen and thymus weight compared with rats injected with ED2-dexamethasone ([3]; 2 days post LPS injection, FIG. 39B and C): significantly lower
Molecule: C[C@@H]1C[C@H]2[C@@H]3CCC4=CC(=O)C=C[C@]4(C)[C@@]3(F)[C@@H](O)C[C@]2(C)[C@@]1(O)C(=O)CO [dexamethasone]
TNFα level lower compared to vehicle [1]: 2 fold | cumulative arthritis score reduced with respect to the vehicle group ([2]; 0.01 mg/kg): 39% | day on which disease incidence of 100% was reached ([2]; 0.01 mg/kg): 14 days | body weight after initiation of treatment ([2]; 0.01 mg/kg): a certain degree of body weight loss | cumulative arthritis score reduced with respect to the vehicle group ([2]; 0.1 mg/kg): 69% | day of disease onset ([2]; 0.1 mg/kg i.v. day 10, 13, 16, 19): 13.8 ± 1.0 days | thymus weight compared to vehicle ([2]; 0.1 mg/kg): significantly decreased; also recorded: significantly lower | cumulative arthritis score reduced with respect to the vehicle group ([2]; 1 mg/kg): 91% | day of disease onset ([2]; 1 mg/kg i.v. day 10, 13, 16, 19): 18.3 ± 2.1 days | body weight after initiation of treatment ([2]; 0.01, 0.1 and 1 mg/kg groups): decreased gradually | level of TNFα lower compared to vehicle ([3]; i.v. 20 hours before LPS, serum 2 hours after LPS, FIG. 39A): 2 fold | TNFα concentration higher in supernatants of macrophages stimulated without the agent (ED2 or PBS) ([4]; 1 μg/ml, LPS 20 hours, FIG. 37): approximately 10 fold

Molecule: CC1(C)O[C@@H]2C[C@H]3[C@@H]4C[C@H](F)C5=CC(=O)C=C[C@]5(C)[C@@]4(F)[C@@H](O)C[C@]3(C)[C@]2(C(=O)CO)O1 [fluocinolone-acetoniode, Fluocinolone acetonide]
TNFα level lower compared to vehicle ([3]; i.v., challenged with LPS, FIG. 41): 5 times | suppressive in vitro effect compared to prednisolone ([4]; FIG. 41): significantly higher

affinities for CD163 [5]: nanomolar or sub-nanomolar range | binding and uptake [6]: best binding and uptake | time course of cell-associated radioactivity (bound or internalized) ([7]; 125I-labelled mAb, increasing time points): did not reach a plateau | cellular uptake and binding to CD163-expressing cells ([7]; compared with the other tested antibodies, FIG. 5): considerably higher | binding to CD163-Fc saturated with Mac2-158 [8]: not able to bind
B1: Mac2-48: anti-human CD163 murine mAb, IQ Products; VH SEQ ID NO: 3, VL SEQ ID NO: 4 (antibody, V domains shown)
VH: DVQLQESGPGLVKPSQSLSLTCTVTGYSITSDYAWNWIRQFPGNKLEWMGFISYSGITSYNPSLKSRISITRDTSKNQFFLQLNSVTTEDSATYYCVSGTYYFDYWGQGTTLTVSS
VL: SIVMTQTPKFLLVSAGDRVTITCKASQSVSHDVSWFQQKPGQSPKLLIYYTSNRYTGVPDRFTGSGYGTDFTFTISTVQAEDLAIYFCQQDYSSPRTFGGGTKLEIKRA
modifications: Mac2-48 VH; Mac2-48 VL

— patent publication US20170119790A1, “Agents, Uses and Methods” (CYTOGUIDE A/S, priority 2009, published 2017)
